US9227921B2, “Salts and polymorphs of a tetracycline compound” (Paratek Pharmaceuticals, Inc., priority 2008, dated 2016)

Legend:
[1] = Stability studies on free base Compound 1 and amorphous diHCl salt; type: physicochemical
Description: Stability studies were performed on the free base Compound 1 and an amorphous diHCl salt of Compound 1. This salt was formed by dissolving the compound in aqueous solution, adjusting the pH of the solution to approximately 4.2, followed by lyophilization. The free base degraded in less than one month at 40° C., and approximately three months at 4° C. In contrast, the diHCl salt of Compound 1 was stable for 6 months at 40° C., and for two years at room temperature (25° C.).

[2] = Solid phase stability of amorphous Compound 1; type: physicochemical; settings: temperatures higher than 0° C. and when exposed to air
From the text: Tetracycline-type antibiotic compounds have long been known to have limited stability in the solid phase freebase form. One such non-crystalline tetracycline analog compound, (4S,4AS,5AR,12AS)-4-7-Bis(dimethylamino)-9-{[(2,2-dimethylpropyl)amino]methyl}-3,10,12,12A-tetrahydroxy-1,1′-dioxo-1,4,4A,5,5A,6,11,12A-octahydrotetracene-2-carboxamide (Compound 1; MW=556.66, MF=C29H40N4O7), has limited stability in the solid phase upon exposure to air, light and/or moisture.
Specifically, Compound 1 is a yellow amorphous solid that is unstable at temperatures higher than 0° C. and when exposed to air. Compound 1 must be stored at temperatures below 0° C. with limited exposure in the solid phase to air, light and moisture. Outside of these limited exposure conditions, Compound 1 degrades to produce degradation products including air degradation products 2, 3 and 4, as well as the 4-epi-isomer 5.

For `CN(C)c1cc(CNCC(C)(C)C)c(O)c2c1C[C@H]1C[C@H]3[C@H](N(C)C)C(O)=C(C(N)=O)C(=O)[C@@]3(O)C(O)=C1C2=O` [Compound 1, (4S,4AS,5AR,12AS)-4-7-Bis(dimethylamino)-9{[(2,2-dimethylpropyl)amino]methyl}-3,10,12,12A-tetrahydroxy-1,1′-dioxo-1,4,4A,5,5A,6,11,12A-octahydrotetracene-2-carboxamide], the “time in which the substance degraded” value ([1]; 4° C.) was “approximately three”, the “time in which the substance degraded” value ([1]; 40° C.) was “less than one” and the solid phase stability [2] was “unstable”.
